IC50 and EC50 data for 21 compounds are collected here from patent US11066414B2, “Cot modulators and methods of use thereof” (Gilead Sciences, Inc., priority 2015, dated 2021).

Like-named read-outs stand apart in the source and are kept apart here.

The target in one experiment is Human Cot (Homo sapiens (Human), UniProt P41279). The experiment is described as follows: High Throughput Cot Biochemical Assay.
The next experiment concerns TNFα. The experiment in a line: Cot Monocyte TNFα Cell Based Assay.
Setting [1] is: IC50 HTRF, Cot HTRF (TR-FRET) biochemical assay.
Where [2] appears, read: Homo sapiens, Monocyte, read-out: EC50 TNF, LPS-stimulated human monocytes, TNFα.
Where [3] appears, read: read-out: IC50 HTRF, Cot HTRF (TR-FRET KinEASE) biochemical assay, 400 μM ATP.
Where [4] appears, read: read-out: EC50 TNF, LPS-stimulated human monocytes, TNFα TR-FRET.
[5] abbreviates: IC50 HTRF, Cot HTRF (TR-FRET KinEASE) biochemical assay, 400 μM ATP.
[6] abbreviates: Homo sapiens, Monocyte, read-out: EC50 TNF, LPS-stimulated human monocytes, TNFα TR-FRET.

Chain of Human Cot (P41279 30-397): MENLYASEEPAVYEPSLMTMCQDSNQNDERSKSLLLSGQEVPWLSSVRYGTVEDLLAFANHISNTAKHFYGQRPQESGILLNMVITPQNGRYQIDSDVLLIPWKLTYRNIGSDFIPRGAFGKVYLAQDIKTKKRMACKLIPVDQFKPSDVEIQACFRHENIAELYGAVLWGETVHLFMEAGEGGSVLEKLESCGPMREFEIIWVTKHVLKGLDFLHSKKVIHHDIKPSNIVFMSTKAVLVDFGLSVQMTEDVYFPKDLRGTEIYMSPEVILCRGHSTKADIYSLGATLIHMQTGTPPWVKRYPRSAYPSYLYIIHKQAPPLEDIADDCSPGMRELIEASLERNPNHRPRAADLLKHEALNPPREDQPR
Protocol for Human Cot: Human Cot enzyme activity was measured using KinEASE (Cisbio), a time-resolved fluorescence resonance energy transfer (TR-FRET) immunoassay. In this assay, Cot-catalyzes the phosporylation of a XL665-labeled peptide substrate. Europium conjugated phospho-tyrosine specific antibody binds the resulting phosphorylated peptide. Formation of phosphorylated peptide is quantified by TR-FRET with Europium as the donor and XL665 the acceptor in a 2-step endpoint assay. […] In brief, test compounds serially diluted in DMSO were delivered into Proxy white, low volume, 384 well plates using the Echo 550 acoustic liquid dispenser (Labcyte®). Cot enzyme and substrates were dispensed into assay plates using a Multi-Flo (Bio-Tek Instruments). The standard 5 μL reaction mixture contained 400 μM ATP, 1 μM STK3 peptide, 5 nM of Cot in reaction buffer (10 mM MOPS, pH 7.0, 0.02% NaN3, 0.5 mg/mL BSA, 10 mM MgOAc, 1 mM DTT, 0.025% NP-40, 1.5% glycerol) and 0.1% DMSO.

As a reminder, the IC50 is the concentration that inhibits the measured activity by half. As usually defined, the EC50 is the concentration that produces a half-maximal response. As to `Cn1cc([C@@H](Nc2cc(Cl)c3ncc(C#N)c(NCC(C)(C)C)c3c2)c2cccc3c(=O)n(C)ccc23)nn1` [Example 790, (S)-8-chloro-6-(((2-methyl-1-oxo-1,2-dihydroisoquinolin-5-yl)(1-methyl-1H-1,2,3-triazol-4-yl)methyl)amino)-4-(neopentylamino)quinoline-3-carbonitrile], half-maximal inhibition against Human Cot (setting [1]) (IC50) required 5 nM. Moreover, the EC50 with TNFα (setting [2]) was found to be 82 nM.
The corresponding values for `Cc1nc(F)ccc1C(Nc1cc(Cl)c2ncc(C#N)c(NCC(C)(C)C)c2c1)c1cn(C)nn1` (stereo not drawn) [Example 791, 8-chloro-6-(((6-fluoro-2-methylpyridin-3-yl)(1-methyl-1H-1,2,3-triazol-4-yl)methyl)amino)-4-(neopentylamino)quinoline-3-carbonitrile] are 22 nM and 242 nM.
On Human Cot (setting [1]), `Cc1nc(F)ccc1[C@H](Nc1cc(Cl)c2ncc(C#N)c(NCC3(C)COC3)c2c1)c1cn(C2(C(F)(F)F)CC2)nn1` [Example 792, (S)-8-chloro-6-(((6-fluoro-2-methylpyridin-3-yl)(1-(1-(trifluoromethyl)-cyclopropyl)-1H-1,2,3-triazol-4-yl)methyl)amino)-4-(((3-methyloxetan-3-yl)methyl)amino)quinoline-3-carbonitrile] returned a concentration for half-maximal inhibition (IC50) of 89 nM. The EC50 in the experiment with TNFα (setting [2]) stood at 843 nM.
The corresponding values for `Cn1ccc2c([C@H](Nc3cc(Cl)c4ncc(C#N)c(NCC(C)(C)C)c4c3)c3cn(C4CCC4)nn3)cccc2c1=O` [Example 796, (S)-8-chloro-6-(((1-cyclobutyl-1H-1,2,3-triazol-4-yl)(2-methyl-1-oxo-1,2-dihydroisoquinolin-5-yl)methyl)amino)-4-(neopentylamino)quinoline-3-carbonitrile] are 2 nM and 31 nM.
Taken in the same sequence, the figures for `CC(C)(CNc1c(C#N)cnc2c(Cl)cc(N[C@H](c3cn(C4(C5CC5)CC4)nn3)c3cccc4ncccc34)cc12)C(F)(F)F` [Example 798, (S)-6-(((1-([1,1′-bi(cyclopropan)]-1-yl)-1H-1,2,3-triazol-4-yl)(quinolin-5-yl)methyl)amino)-8-chloro-4-((3,3,3-trifluoro-2,2-dimethylpropyl)amino)quinoline-3-carbonitrile] were 7 nM and 90 nM.
The compound `CC(C)(CNc1c(C#N)cnc2c(Cl)cc(N[C@H](c3cn(C45CC(C4)C5)nn3)c3cccc4ncccc34)cc12)C(F)(F)F` [Example 799, (S)-6-(((1-(bicyclo[1.1.1]pentan-1-yl)-1H-1,2,3-triazol-4-yl)(quinolin-5-yl)methyl)amino)-8-chloro-4-((3,3,3-trifluoro-2,2-dimethylpropyl)amino)quinoline-3-carbonitrile] returned an IC50 against Human Cot (setting [1]) of 4 nM. Moreover, the half-maximal effective concentration (EC50) with TNFα (setting [2]) is 46 nM.
In the case of `Cn1ccc2c([C@H](Nc3cc(Cl)c4ncc(C#N)c(NCC(C)(C)C)c4c3)c3cn(C4(C)CCC4)nn3)cccc2c1=O` [Example 800, (S)-8-chloro-6-(((2-methyl-1-oxo-1,2-dihydroiso-quinolin-5-yl)(1-(1-methylcyclobutyl)-1H-1,2,3-triazol-4-yl)methyl)amino)-4-(neopentylamino)quinoline-3-carbonitrile], at Human Cot (setting [3]), the IC50 stood at 2 nM. Also, the EC50 in the experiment on TNFα (setting [4]) came to 25 nM.
Compound `CCC(C)n1cc([C@@H](Nc2cc(Cl)c3ncc(C#N)c(NCC(C)(C)C)c3c2)c2cccc3c(=O)n(C)ccc23)nn1` (stereo partly drawn) [Example 801, 6-(((1 S)-(1-(sec-butyl)-1H-1,2,3-triazol-4-yl)(2-methyl-1-oxo-1,2-dihydroisoquinolin-5-yl)methyl)amino)-8-chloro-4-(neopentylamino)quinoline-3-carbonitrile] gave an IC50 against Human Cot (setting [5]) of 3 nM. Besides, the EC50 in the experiment on TNFα (setting [6]) was 31 nM.
The corresponding values for `COC[C@H](C)n1cc([C@@H](Nc2cc(Cl)c3ncc(C#N)c(NCC(C)(C)C)c3c2)c2cccc3c(=O)n(C)ccc23)nn1` [Example 802, 8-chloro-6-(((S)-(1-((S)-1-methoxypropan-2-yl)-1H-1,2,3-triazol-4-yl)(2-methyl-1-oxo-1,2-dihydroisoquinolin-5-yl)methyl)amino)-4-(neopentylamino)quinoline-3-carbonitrile] are 4 nM and 36 nM.
`CC(C)(C)CNc1c(C#N)cnc2c(Cl)cc(N[C@H](c3cn(C(CF)CF)nn3)c3cccc4ncccc34)cc12` [Example 804, (S)-8-chloro-6-(((1-(1,3-difluoropropan-2-yl)-1H-1,2,3-triazol-4-yl)(quinolin-5-yl)methyl)amino)-4-(neopentylamino)quinoline-3-carbonitrile]: the half-maximal inhibitory concentration (IC50) on Human Cot (setting [5]) was determined as 9 nM. In the experiment with TNFα (setting [6]), the EC50 came to 137 nM.
Regarding `COc1ccc([C@H](Nc2cc(Cl)c3ncc(C#N)c(NCC(C)(C)C)c3c2)c2cn(C3(C(F)(F)F)CC3)nn2)cn1` [Example 805, (S)-8-chloro-6-(((6-methoxypyridin-3-yl)(1-(1-(trifluoromethyl)cyclopropyl)-1H-1,2,3-triazol-4-yl)methyl)amino)-4-(neopentylamino)quinoline-3-carbonitrile], on Human Cot (setting [5]), half-maximal inhibition (IC50) required 28 nM. Also, in the experiment on TNFα (setting [6]), the EC50 is 778 nM.
Taken in the same sequence, the figures for `Cc1nnc(C2(n3cc([C@@H](Nc4cc(Cl)c5ncc(C#N)c(NCC(C)(C)C)c5c4)c4ccc(F)nc4C)nn3)CC2)o1` [Example 806, (S)-8-chloro-6-(((6-fluoro-2-methylpyridin-3-yl)(1-(1-(5-methyl-1,3,4-oxadiazol-2-yl)cyclopropyl)-1H-1,2,3-triazol-4-yl)methyl)amino)-4-(neopentylamino)quinoline-3-carbonitrile] were 3 nM and 28 nM.
With `COc1nccc2c([C@H](Nc3cc(C#N)c4ncc(C#N)c(NCC(C)(C)C)c4c3)c3cn(C45CC(C4)C5)nn3)cccc12` [Example 807, (S)-6-(((1-(bicyclo[1.1.1]pentan-1-yl)-1H-1,2,3-triazol-4-yl)(1-methoxylsoquinolin-5-yl)methyl)amino)-4-(neopentylamino)quinoline-3,8-dicarbonitrile], the half-maximal inhibitory concentration (IC50) at Human Cot (setting [3]) is 3 nM. The EC50 in the experiment with TNFα (setting [4]) came out at 31 nM.
In the case of `COc1nccc2c([C@H](Nc3cc(C#N)c4ncc(C#N)c(NCC(C)(C)C)c4c3)c3cn(C4CC4)nn3)cccc12` [Example 808, (S)-6-(((1-cyclopropyl-1H-1,2,3-triazol-4-yl)(1-methoxylsoquinolin-5-yl)methyl)airiino)-4-(neopentylamino)quinoline-3,8-dicarbonitrile], the IC50 on Human Cot (setting [3]) amounted to 3 nM. Besides, the EC50 in the experiment with TNFα (setting [4]) was 29 nM.
As for `COc1nccc2c([C@H](Nc3cc(C#N)c4ncc(C#N)c(NCC(C)(C)C)c4c3)c3cn(C4(C)CC4)nn3)cccc12` [Example 809, (S)-6-(((1-methoxylsoquinolin-5-yl)(1-(1-methylcyclopropyl)-1H-1,2,3-triazol-4-yl)methyl)amino)-4-(neopentylamino)quinoline-3,8-dicarbonitrile], the half-maximal inhibitory concentration (IC50) at Human Cot (setting [3]) came out at 3 nM. For the same compound, the EC50 with TNFα (setting [4]) stood at 32 nM.
For the compound `COc1nccc2c([C@H](Nc3cc(C#N)c4ncc(C#N)c(NCC(C)(C)C)c4c3)c3cn(C4(C(F)F)CC4)nn3)cccc12` [Example 810, (S)-6-(((1-(1-(difluoromethyl)-cyclopropyl)-1H-1,2,3-triazol-4-yl)(1-methoxylsoquinolin-5-yl)methyl)amino)-4-(neopentylamino)quinoline-3,8-dicarbonitrile], at Human Cot (setting [3]), the IC50 was found to be 4 nM. The EC50 in the experiment with TNFα (setting [4]) turned out to be 54 nM.
With `COc1ccc2c([C@H](Nc3cc(C#N)c4ncc(C#N)c(NCC(C)(C)C)c4c3)c3cn(C4(C(F)(F)F)CC4)nn3)cccc2n1` [Example 811, (S)-6-(((2-methoxyquinolin-5-yl)(1-(1-(trifluoromethyl)cyclopropyl)-1H-1,2,3-triazol-4-yl)methyl)amino)-4-(neopentylamino)quinoline-3,8-dicarbonitrile], half-maximal inhibition against Human Cot (setting [5]) (IC50) was put at 11 nM. The 50% effective concentration (EC50) in the experiment with TNFα (setting [6]) worked out at 333 nM.
As to `COc1nccc2c([C@H](Nc3cc(C#N)c4ncc(C#N)c(NCC(C)(C)C)c4c3)c3cn(C4(C(F)(F)F)CC4)nn3)cccc12` [Example 812, (S)-6-(((1-methoxylsoquinolin-5-yl)(1-(1-(trifluoromethyl)cyclopropyl)-1H-1,2,3-triazol-4-yl)methyl)amino)-4-(neopentylamino)quinoline-3,8-dicarbonitrile], the IC50 at Human Cot (setting [3]) is 5 nM. For the same compound, the EC50 in the experiment with TNFα (setting [4]) turned out to be 68 nM.
The compound `CC1(n2cc([C@@H](Nc3cc(C#N)c4ncc(C#N)c(NCC(C)(C)C(F)(F)F)c4c3)c3ccc(F)c4ncccc34)nn2)CC1` [Example 813, (S)-6-(((8-fluoroquinolin-5-yl)(1-(1-methylcyclopropyl)-1H-1,2,3-triazol-4-yl)methyl)amino)-4-((3,3,3-trifluoro-2,2-dimethylpropyl)amino)quinoline-3,8-dicarbonitrile] had an IC50 against Human Cot (setting [5]) of 2 nM. Further, in the experiment with TNFα (setting [6]), the EC50 amounted to 24 nM.
`CC(C)(C)CNc1c(C#N)cnc2c(C#N)cc(N[C@H](c3cn(C45CC(C4)C5)nn3)c3ccc(F)c4ncccc34)cc12` [Example 814, (S)-6-(((1-(bicyclo[1.1.1]pentan-1-yl)-1H-1,2,3-triazol-4-yl)(8-fluoroquinolin-5-yl)methyl)amino)-4-(neopentylamino)quinoline-3,8-dicarbonitrile]: the half-maximal inhibitory concentration (IC50) against Human Cot (setting [5]) was determined as 2 nM. In addition, the EC50 in the experiment on TNFα (setting [6]) was 16 nM.
The corresponding values for `CC(C)(C)CNc1c(C#N)cnc2c(C#N)cc(N[C@@H](c3ccc4cccnc4c3)c3cn(C4(C(F)F)CC4)nn3)cc12` [Example 818, (S)-6-(((1-(1-(difluoromethyl)-cyclopropyl)-1H-1,2,3-triazol-4-yl)(quinolin-7-yl)methyl)amino)-4-(neopentylamino)quinoline-3,8-dicarbonitrile] are 6 nM and 176 nM.
